Assay results as given in patent US12351570B2 (MERCK PATENT GMBH, priority 2018, dated 2025).

Test system: MDA-MB-231 cells
Test: Extracellular lactate production inhibition after 4 h, MDA-MB-231
Settings: Homo sapiens, MDA-MB-231

Row | SMILES | IC50 [µM]
1 | CC(=O)N(Cc1ccc2ccccc2c1)c1ccccc1C#Cc1ccc(C(=O)O)nc1 [Compound 116, 5-[2-(2-{N-[(naphthalen-2-yl)methyl]acetamido}phenyl)ethynyl]-pyridine-2-carboxylic acid] | 0.1 to 1
2 | O=C(O)c1ccc(C#Cc2ccccc2NS(=O)(=O)N2CCC3CCCCC3C2)cn1 (stereo not shown) [Compound 103, 5-(2-{2-[(decahydroisoquinoline-2-sulfonyl)amino]phenyl}ethynyl)pyridine-2-carboxylic acid] | 0.1 to 1
3 | O=C(O)c1ccc(C#Cc2ccccc2NS(=O)(=O)c2cccc(Br)c2)cn1 [Compound 95, 5-{2-[2-(3-bromobenzenesulfonamido)phenyl]-ethynyl}pyridine-2-carboxylic acid] | 1 to 100
4 | COc1cc(C#Cc2ccccc2NS(=O)(=O)c2ccc(OC)c3ccccc23)ccc1C(=O)O [Compound 33, 2-methoxy-4-{2-[2-(4-methoxynaphthalene-1-sulfonamido)phenyl]ethynyl}benzoic acid] | 0.1 to 1
5 | Cc1cc(C(=O)O)ncc1C#Cc1cc(F)ccc1NS(=O)(=O)c1ccc(-c2ccccc2)cc1 [Compound 138, 5-[2-(2-{[1,1′-biphenyl]-4-sulfonamido}-5-fluorophenyl)ethynyl]-4-methylpyridine-2-carboxylic acid] | 0.1 to 1
6 | COc1cccc(S(=O)(=O)Nc2ccc(F)cc2C#Cc2cnc(C(=O)O)c(C)c2)c1 [Compound 322, 5-{2-[5-fluoro-2-(3-methoxybenzene-sulfonamido)phenyl]ethynyl}-3-methylpyridine-2-carboxylic acid] | 1 to 100
7 | COc1ccc(S(=O)(=O)Nc2cc(Cl)ccc2C#Cc2ccc(C(=O)O)nc2)c2ncccc12 [Compound 199, 5-{2-[4-chloro-2-(5-methoxyquinoline-8-sulfonamido)phenyl]ethynyl}pyridine-2-carboxylic acid] | 0.01 to 0.1
8 | COCCOC(=O)c1ccc(C#Cc2ccccc2NS(=O)(=O)c2c(C)ccc3cccnc23)cn1 [Compound 410, 2-methoxyethyl 5-{2-[2-(7-methylquinoline-8-sulfonamido)phenyl]ethynyl}pyridine-2-carboxylate] | 0.1 to 1
9 | COc1ccc(S(=O)(=O)Nc2ccccc2C#Cc2ccc(C(=O)OC(C)C)nc2)c2ncccc12 [Compound 167, propan-2-yl 5-{2-[2-(5-methoxyquinoline-8-sulfonamido)phenyl]ethynyl}pyridine-2-carboxylate] | 0.01 to 0.1
10 | CCOc1cc(C(=O)O)ncc1C#Cc1ccccc1NS(=O)(=O)c1c(C)ccc2cccnc12 [Compound 180, 4-ethoxy-5-{2-[2-(7-methylquinoline-8-sulfonamido)phenyl]ethynyl}pyridine-2-carboxylic acid] | 0.01 to 0.1
11 | COC(=O)c1ccc(C#Cc2ccccc2NS(=O)(=O)c2c(C)ccc3cccnc23)cn1 [Compound 143, methyl 5-{2-[2-(7-methylquinoline-8-sulfonamido)phenyl]ethynyl}pyridine-2-carboxylate] | 0.01 to 0.1
12 | CCNc1cc(C#Cc2ccccc2NS(=O)(=O)c2ccc(OC)c3cccnc23)cnc1C(=O)O [Compound 376, 3-(ethylamino)-5-{2-[2-(5-methoxyquinoline-8-sulfonamido)phenyl]ethynyl}pyridine-2-carboxylic acid] | 0.001 to 0.01
13 | Cc1cc(C#Cc2ccccc2NS(=O)(=O)c2ccc3c(c2)Cc2ccccc2-3)cnc1C(=O)O [Compound 118, 5-{2-[2-(9H-fluorene-2-sulfonamido)phenyl]ethynyl}-3-methylpyridine-2-carboxylic acid] | 0.1 to 1
14 | CCc1ccc(S(=O)(=O)Nc2ccccc2C#Cc2ccc(C(=O)O)nc2)c2ncccc12 [Compound 411, 5-{2-[2-(5-ethylquinoline-8-sulfonamido)phenyl]ethynyl}pyridine-2-carboxylic acid] | 0.1 to 1
15 | O=C(O)c1ncc(C#Cc2ccccc2NS(=O)(=O)c2ccc3ccccc3c2)cc1F [Compound 65, 3-fluoro-5-{2-[2-(naphthalene-2-sulfonamido)phenyl]ethynyl}pyridine-2-carboxylic acid] | 1 to 100
16 | Cc1cc(C#Cc2ccccc2NS(=O)(=O)N2CCC[C@@H]3CCCC[C@H]32)cnc1C(=O)O [Compound 225, 5-[2-(2-{[(4a,8a-trans)-decahydro-quinoline-1-sulfonyl]amino}phenyl)-ethynyl]-3-methylpyridine-2-carboxylic acid] | 0.01 to 0.1
17 | O=C(O)c1ccc(C#Cc2ccccc2NS(=O)(=O)N2CCc3ccccc32)cn1 [Compound 126, 5-(2-{2-[(2,3-dihydro-1H-indole-1-sulfonyl)amino]phenyl}ethynyl)pyridine-2-carboxylic acid] | 0.1 to 1
18 | C=C(C)c1cc(C(=O)O)ncc1C#Cc1ccccc1NS(=O)(=O)c1c(C)ccc2cccnc12 [Compound 158, 5-{2-[2-(7-methylquinoline-8-sulfonamido)phenyl]ethynyl}-4-(prop-1-en-2-yl)pyridine-2-carboxylic acid] | 0.01 to 0.1
19 | COc1ccc(NS(=O)(=O)c2c(C)ccc3cccnc23)c(C#Cc2ccc(C(=O)O)nc2)c1 [Compound 247, 5-{2-[5-methoxy-2-(7-methylquinoline-8-sulfonamido)phenyl]ethynyl}pyridine-2-carboxylic acid] | 0.01 to 0.1

Row | SMILES | IC50 [µM]
20 | COc1cccc(S(=O)(=O)Nc2ccccc2C#Cc2ccc(C(=O)O)c(C)c2)c1 [Compound 9, 4-{2-[2-(3-methoxybenzenesulfonamido)phenyl]-ethynyl}-2-methylbenzoic acid] | 1 to 100
21 | CCOc1ccc(S(=O)(=O)Nc2ccccc2C#Cc2cnc(C(=O)O)c3ccccc23)c2ncccc12 [Compound 442, 4-{2-[2-(5-ethoxyquinoline-8-sulfonamido)phenyl]ethynyl}iso-quinoline-1-carboxylic acid] | 0.01 to 0.1
22 | O=C(O)c1ccc(C#Cc2ccccc2NS(=O)(=O)c2cc(F)cc3cccnc23)cn1 [Compound 294, 5-{2-[2-(6-fluoroquinoline-8-sulfonamido)phenyl]ethynyl}pyridine-2-carboxylic acid] | 0.1 to 1
23 | COc1cc(CN(C=O)c2ccccc2C#Cc2ccc(C(=O)O)nc2)ccc1-c1ccccc1 [Compound 201, 5-(2-{2-[N-({2-methoxy-[1,1′-biphenyl]-4-yl}methyl)formamido]phenyl}-ethynyl)pyridine-2-carboxylic acid] | 0.01 to 0.1
24 | COC(=O)c1ccc(C#Cc2ccccc2NS(=O)(=O)c2cccc(-c3cccnc3)c2)cn1 [Compound 131, methyl 5-(2-{2-[3-(pyridin-3-yl)benzenesulfonamido]phenyl}-ethynyl)pyridine-2-carboxylate] | 0.1 to 1
25 | O=C(O)c1ccc(C#Cc2ccccc2NC(=O)N2CCCc3cccnc32)cn1 [Compound 151, 5-(2-{2-[(1,2,3,4-tetrahydro-1,8-naphthyridine-1-carbonyl)amino]phenyl}-ethynyl)pyridine-2-carboxylic acid] | 0.1 to 1
26 | COC(=O)c1ncc(C#Cc2cc(F)ccc2NS(=O)(=O)c2ccc(OC)c3cccnc23)cc1C [Compound 316, methyl 5-{2-[5-fluoro-2-(5-methoxyquinoline-8-sulfonamido)phenyl]ethynyl}-3-methylpyridine-2-carboxylate] | 1 to 100
27 | COc1ccc(S(=O)(=O)Nc2ccc(Cl)cc2C#Cc2ccc(C(=O)N(C)C)nc2)c2ncccc12 [Compound 239, 5-{2-[5-chloro-2-(5-methoxyquinoline-8-sulfonamido)phenyl]ethynyl}-N,N-dimethylpyridine-2-carboxamide] | 1 to 100
28 | Cc1cc(C#Cc2cc(F)ccc2NS(=O)(=O)c2ccc(-c3ccccc3)cc2)cnc1C(=O)O [Compound 308, 5-[2-(2-{[1,1′-biphenyl]-4-sulfonamido}-5-fluorophenyl)ethynyl]-3-methylpyridine-2-carboxylic acid] | 0.1 to 1
29 | O=CN(Cc1cccc(Oc2ccccc2)c1)c1ccccc1C#Cc1ccc(C(=O)O)nc1 [Compound 203, 5-[2-(2-{N-[(3-phenoxyphenyl)methyl]-formamido}phenyl)ethynyl]pyridine-2-carboxylic acid] | 0.1 to 1
30 | NCCOCCOCCOc1ccc(NS(=O)(=O)c2cccc3cccnc23)c(C#Cc2ccc(C(=O)O)nc2)c1 [Compound 333, 5-[5-{2-[2-(2-Amino-ethoxy)-ethoxy]-ethoxy}-2-(quinoline-8-sulfonylamino)-phenylethynyl]-pyridine-2-carboxylic acid] | 1 to 100
31 | O=C(O)c1ncc(C#Cc2ccccc2NS(=O)(=O)c2cccc3ccccc23)cc1F [Compound 279, 3-fluoro-5-{2-[2-(naphthalene-1-sulfon-amido)phenyl]ethynyl}pyridine-2-carboxylic acid] | 1 to 100
32 | O=C(O)c1ccc(C#Cc2ccccc2NS(=O)(=O)c2cccc3ccccc23)cc1F [Compound 69, 2-fluoro-4-{2-[2-(naphthalene-1-sulfonamido)phenyl]ethynyl}benzoic acid] | 0.1 to 1
33 | O=C(O)c1ccc(C#Cc2ccccc2NS(=O)(=O)/C=C/c2ccccc2)cn1 [Compound 326, 5-(2-{2-[(E)-2-phenylethenesulfon-amido]phenyl}ethynyl)pyridine-2-carboxylic acid] | 1 to 100
34 | COc1ccc(S(=O)(=O)Nc2ccc(C)cc2C#Cc2ccc(C(=O)O)nc2)c2ncccc12 [Compound 383, 5-[2-(5-Methoxy-quinoline-8-sulfonylamino)-5-methyl-phenylethynyl]-pyridine-2-carboxylic acid] | 0.001 to 0.01
35 | CC(C)Nc1ccnc2c(S(=O)(=O)Nc3ccccc3C#Cc3ccc(C(=O)O)nc3)cccc12 [Compound 427, 5-[2-(4-Isopropylamino-quinoline-8-sulfonylamino)-phenylethynyl]-pyridine-2-carboxylic acid] | 1 to 100
36 | COc1ccc(S(=O)(=O)Nc2ccccc2C#Cc2ccc(C(=O)O)nc2)c(Cl)c1 [Compound 287, 5-{2-[2-(2-chloro-4-methoxybenzene-sulfonamido)phenyl]ethynyl}pyridine-2-carboxylic acid] | 1 to 100
37 | COc1ccc(S(=O)(=O)Nc2ccccc2C#Cc2ccc(C(=O)O)nc2)c(C)c1 [Compound 72, 5-{2-[2-(4-methoxy-2-methylbenzenesulfonamido)phenyl]-ethynyl}pyridine-2-carboxylic acid] | 1 to 100
